Results: patent US20150230462A1, “METHODS FOR IMPROVING GERMINATION AND STRESS TOLERANCE CHARACTERISTICS WITH JASMONATES” (New Biology, Inc., priority 2014, published 2015)
Entries after “also recorded” stand apart in the source; their conditions may differ.

Columns and labels:
[1] = test system: Seeds of tomato (‘Crimson Carmello’); experiment: Germinating tomato seeds soaked 1 hour in MDHJ: percent germination, radicle length (Example 26); type: in vivo; conditions: for Percent of Tomato Seeds Germinated, Day 5 / Percent of Tomato Seeds Germinated, Day 7: 1 hour soak of germinating seeds
Protocol: Seeds of tomato (‘Crimson Carmello’) were soaked in water for 24 hours. After 24 hours, seeds were transferred to a solution containing water only (untreated control or UTC), 0.05 mM MDHJ, or 0.5 mM MDHJ in water. There were 8-9 seeds per treatment. After soaking for 1 hour, the seeds were rinsed in water and placed between two layers of water-moistened paper towel in a clear plastic covered tray. The trays were placed at room temperature with normal daylight conditions and allowed to germinate. At day 5 and 7, the percent of germinated seeds was obtained. At days 5 and 7, radicle length was measured in tomato seedlings (no coleoptiles were showing yet). At Day 5 and 7, radicle length was measured in millimeters.

[2] = test system: Seeds of Redina lettuce (Lechuga redina); experiment: Redina lettuce seeds treated with MDHJ soak solutions with wetting agent (Example 4); type: in vivo
Protocol: Non-germinated seeds of the hybrid corn varietal “Early Sun Glow” were treated with MDHJ by soaking for 24 hours in 50 mL conical vessels in one of four treatment solutions. During the soak, the seeds spent 12 hours in typical lighting conditions and 12 hours in darkness. The four treatment solutions are set forth below in Table 5. In Table 5, COCO-WET® is a wetting agent sold by Spray-N-Grow, Inc. of Rockport, Tex.
Seeds of Redina lettuce (Lechuga redina) were treated with MDHJ according to the protocol of Example 2.

[3] = test system: Seeds of corn (‘Sugar Pearl’); experiment: Planted germinating corn seeds, soil sprayed with MDHJ: seedling emergence and plant height (Example 29); type: in vivo; conditions: for Percent Seedling Emergence: 12.5 ml/pot sprayed on soil two days after planting, 21 days after planting, n=16
Protocol: Seeds of corn (‘Sugar Pearl’) were soaked in water for 48 hours and subsequently planted 1-inch deep in potting soil in 6-inch pots. Two days after planting, the soil was sprayed with 12.5 ml/pot of 0 mM (UTC), 0.75 mM or 7.5 mM MDHJ. There were 8 seeds planted per pot and two pots for each treatment (n=16). Germination was recorded 21 days after planting, and plant height measured 24 days after planting.

[4] = test system: Seeds of wheat (Triticum aestivum ‘Liquid Sunshine’); experiment: Germinating wheat seeds soaked 1 hour in MDHJ: percent germination, coleoptile length (Example 27); type: in vivo; conditions: for Percent of Wheat Seeds Germinated at Day 7: 1 hour soak after 24 hours in water
Protocol: Seeds of wheat (Triticum aestivum ‘Liquid Sunshine’) were soaked in water for 24 hours. After 24 hours, seeds were transferred to a solution containing water only (untreated control or UTC), 0.05 mM MDHJ, 0.5 mM MDHJ, or 5.0 mM MDHJ in water. There were 16-20 seeds per treatment. After soaking for 1 hour, the seeds were rinsed in water and placed between two layers of water-moistened paper towel in a clear plastic covered tray. The trays were placed at room temperature with normal daylight conditions and allowed to germinate. At day 7, the percent of germinated seeds was obtained and coleoptile length was measured.

plants [5] = conditions: U.S. Pat. Nos. 8,013,226 and 8,563,839; cited from earlier work
plants [6] = conditions: U.S. Patent Application Publication No. 2009/0082453; cited from earlier work
Sugar snap pea seeds = Sugar snap pea seeds treated with MDHJ soak solutions with wetting agent: seeds germinated (Example 3); type: in vivo
Protocol: Non-germinated seeds of the hybrid corn varietal “Early Sun Glow” were treated with MDHJ by soaking for 24 hours in 50 mL conical vessels in one of four treatment solutions. During the soak, the seeds spent 12 hours in typical lighting conditions and 12 hours in darkness. The four treatment solutions are set forth below in Table 5. In Table 5, COCO-WET® is a wetting agent sold by Spray-N-Grow, Inc. of Rockport, Tex. On Day 2, 4 2-inch pots were planted with three seeds each, for a total of 12 seeds per treatment. Germination of the potted seeds was measured at days 8 and 15. Sugar snap pea seeds were treated according to the procedure in Example 2. The number of seeds germinated were counted at days 8 and 15 after treatment.

[7] = test system: swiss chard (‘Peppermint Stick’) seeds; experiment: Germinating swiss chard seeds (48 hours water soak) soaked 1 hour in MDHJ: germination at Day 6 (Example 28); type: in vivo; conditions: for Percent of Seeds Germinated at Day 6, Swiss Chard: 1 hour soak after 48 hours in water
Protocol: (§1) Seeds of wheat (Triticum aestivum ‘Liquid Sunshine’), corn (‘Sugar Pearl’) and swiss chard (‘Peppermint Stick’) were soaked in water for 48 hours, immediately followed by a 1 hour soak in no MDHJ (untreated control, or UTC), 1.5 mM MDHJ or 7.5 mM MDHJ. Seeds were then rinsed and placed between sheets of moistened paper towel and surrounded by a saran wrap tent to keep the germinating environment moist. There were 13-25 seeds for each treatment of each plant. At Day 6, seed germination was measured for each plant.

[8] = test system: wheat (Triticum aestivum ‘Liquid Sunshine’) seeds; experiment: Germinating wheat seeds (48 hours water soak) soaked 1 hour in MDHJ: germination at Day 6 (Example 28); type: in vivo; conditions: for Percent of Seeds Germinated at Day 6, Wheat: 1 hour soak after 48 hours in water
Protocol: as §1

[9] = test system: corn (‘Sugar Pearl’) seeds; experiment: Germinating corn seeds (48 hours water soak) soaked 1 hour in MDHJ: germination at Day 6 (Example 28); type: in vivo; conditions: for Percent of Seeds Germinated at Day 6, Corn: 1 hour soak after 48 hours in water
Protocol: as §1

plants [10] = conditions: U.S. Patent Application Publication No. 2009/0133166; cited from earlier work
[11] = test system: non-germinated seeds and resulting plants; conditions: U.S. Pat. No. 8,115,053 to Roberts et al.; treating non-germinated seeds; cited from earlier work
seed germination = conditions: Norastehnia et al., Gen. Appl. Plant Physiology, 2007; cited from earlier work

## CCCCCC1C(=O)CCC1CC(=O)OC (centres unmarked) [MDHJ, methyl dihydrojasmonate]
[1]; 0.05 mM MDHJ
  Percent of Tomato Seeds Germinated, Day 5: 87.5%
  Percent of Tomato Seeds Germinated, Day 7: 100%
[1]; 0.5 mM MDHJ
  Seed germination percentage: enhanced
[1]; 0.50 mM MDHJ
  Percent of Tomato Seeds Germinated, Day 5: 100%
  Percent of Tomato Seeds Germinated, Day 7: 100%
[1]; 0.5 mM MDHJ, by day 7, FIG. 4
  radicle length compared to untreated seeds: increase in radicle length compared to untreated seeds
[2]; 15 days after treatment, MDHJ at concentrations below 1.5 mM
  adverse effects on germination: no adverse effects on germination; also recorded: not to adversely affect germination
[2]; in vivo
  germination benefit from MDHJ exposure: no germination benefit was seen
[3]; 0.75 mM MDHJ
  Percent Seedling Emergence: 63%
[3]; 0.75 mM-treated seed
  germination compared to the untreated control: increased germination
[3]; 7.50 mM MDHJ
  Percent Seedling Emergence: 50%
[3]; 7.5 mM treated seed
  germination compared to the untreated control: no germination inhibition
[3]; FIG. 6, 24 days after planting, 0.75 mM or 7.5 mM
  growth (plant height, words): did not inhibit growth
[4]; 0.05 mM MDHJ
  seed germination percentage compared to the untreated control: increased seed germination percentage
  Percent of Wheat Seeds Germinated at Day 7: 95%
[4]; 0.05 mM MDHJ, FIG. 5
  coleoptile length: no decrease in coleoptile length
[4]; 0.50 mM MDHJ
  Percent of Wheat Seeds Germinated at Day 7: 53%
[4]; 0.5 mM and above, FIG. 5
  germination and coleoptile growth: inhibition of germination and coleoptile growth
[4]; 5.00 mM MDHJ
  Percent of Wheat Seeds Germinated at Day 7: 55%
[4]; 5.0 mM treatment
  coleoptiles and radicles: too short to measure
[4]; concentrations below 0.5 mM, germinating wheat in paper towel
  rate of seed germination in wheat: beneficial for improved rate of seed germination
Plants [5]
  chlorosis and necrosis of leaf senescence: can reduce the chlorosis and necrosis of leaf senescence
Plants [6]
  biotic attack: effective in reducing biotic attack and disease in plants; also recorded: surprisingly effective at preventing biotic attack
Sugar snap pea seeds; MDHJ concentrations under 1.5 mM
  adverse effect on germination: not to adversely affect germination
Sugar snap pea seeds; in vivo
  germination benefit from MDHJ exposure: no germination benefit was seen
[7]; 1.5 mM MDHJ
  germination: improved
  Percent of Seeds Germinated at Day 6, Swiss Chard: 77%
[7]; 7.5 mM MDHJ
  Percent of Seeds Germinated at Day 6, Swiss Chard: 58%
[8]; 1.5 mM MDHJ
  Percent of Seeds Germinated at Day 6, Wheat: 100%
[8]; 1.5 mM and 7.5 mM MDHJ
  General Observation, Wheat: seedlings were stunted
[8]; 7.5 mM MDHJ
  Percent of Seeds Germinated at Day 6, Wheat: 100%
[9]; 1.5 mM MDHJ
  germination: improved
  Percent of Seeds Germinated at Day 6, Corn: 54%
[9]; 7.5 mM MDHJ
  Percent of Seeds Germinated at Day 6, Corn: 0.1%
Plants [10]
  flowering characteristics: improves flowering characteristics

## CC/C=C\CC1C(=O)CCC1CC(=O)O (centres unmarked) [jasmonic acid, 2-(3-oxo-2-(pent-2-enyl)cyclopentyl)acetic acid]
[11]
  pest resistance in the resulting plants: increases pest resistance in the resulting plants up to 10 weeks after sowing

## CC/C=C\CC1C(=O)CCC1CC(=O)OC (centres unmarked) [methyl jasmonate]
[11]
  pest resistance in the resulting plants: increases pest resistance in the resulting plants up to 10 weeks after sowing
Seed germination
  seed germination: inhibits seed germination
